Source: patent US20250034159A1, “INHIBITORS OF EPIDERMAL GROWTH FACTOR RECEPTOR” (ORIC Pharmaceuticals, Inc., priority 2021, published 2025)
Like-named read-outs stand apart in the source and are kept apart here.

Experiments:
BaF3_EGFR LR/CS cells = assay: Biological Activity Assay D: BaF3 cell proliferation assay, EGFR L858R/C797S mutant (BaF3 LR/CS); type: cell-based; conditions: Ba/F3 EGFR, read-out: BaF3 LR/CS IC50
Ba/F3_EGFR WT cells = assay: Biological Activity Assay D: BaF3 cell proliferation assay, EGFR wild-type (BaF3 WT); type: cell-based; conditions: Ba/F3 EGFR, read-out: BaF3 WT IC50
[1] = molecular target: recombinant human EGFR exon 19 deletion/C797S double mutant protein (Homo sapiens (Human), UniProt P00533, C797S/DEL746-750); assay: Biological Activity Assay C: biochemical assay against EGFR exon 19 deletion/C797S protein (EGFR d19/CS)
Sequence of recombinant human EGFR exon 19 deletion/C797S double mutant protein (P00533 other isoform, or with tags, fused parts or gaps C797S/del 1-668/del 746-750 limits assumed): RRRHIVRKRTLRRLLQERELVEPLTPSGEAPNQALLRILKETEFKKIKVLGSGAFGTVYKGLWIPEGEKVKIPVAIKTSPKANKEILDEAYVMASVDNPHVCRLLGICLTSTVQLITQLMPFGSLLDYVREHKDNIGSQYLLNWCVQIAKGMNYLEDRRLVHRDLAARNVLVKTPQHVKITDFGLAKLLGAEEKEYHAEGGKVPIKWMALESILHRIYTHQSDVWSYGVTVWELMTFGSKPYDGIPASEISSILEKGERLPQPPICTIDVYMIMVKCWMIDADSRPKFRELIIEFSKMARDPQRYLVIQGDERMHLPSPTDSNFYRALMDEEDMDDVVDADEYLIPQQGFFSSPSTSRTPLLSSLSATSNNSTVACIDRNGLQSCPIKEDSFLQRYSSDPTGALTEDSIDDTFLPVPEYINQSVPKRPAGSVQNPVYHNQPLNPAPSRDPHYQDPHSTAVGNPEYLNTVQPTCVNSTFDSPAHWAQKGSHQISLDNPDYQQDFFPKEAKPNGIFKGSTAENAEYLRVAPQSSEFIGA
Summary of the method: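 IC50 values were fitted with a 4-parameter model to reaction slopes taken from 90 kinetic reads spaced 120 s apart. The Phosphosens sensor/ATP working solution was 40 uM/4 mM, and compound was dosed as 16-point dilutions at 2.5% final DMSO.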

BaF3_EGFR d19/CS cells = assay: Biological Activity Assay D: BaF3 cell proliferation assay, EGFR exon 19 deletion/C797S (BaF3 d19/CS); type: cell-based; conditions: Ba/F3 EGFR, read-out: BaF3 d19/CS IC50
[2] = BaF3_EGFR LR/CS cells, ~72 hours, CellTiter-Glo
[3] = Ba/F3_EGFR WT cells, ~72 hours, CellTiter-Glo
[4] = BaF3_EGFR d19/CS cells, ~72 hours, CellTiter-Glo

Row | IC50 (BaF3_EGFR LR/CS cells; [2]) [nM] | IC50 (Ba/F3_EGFR WT cells; [3]) [nM] | IC50 [1] [nM] | IC50 (BaF3_EGFR d19/CS cells; [4]) [nM] | Structure (SMILES) | IC50 (BaF3_EGFR LR/CS cells; 72 h) [nM] | IC50 (Ba/F3_EGFR WT cells; 72 h) [nM] | IC50 (BaF3_EGFR d19/CS cells; 72 h) [nM]
1 | 51 | 1280 | 0.11 | 49.7 | CN1CCN(Cc2cccc(-c3cc4c(-c5cn(C6CS(=O)(=O)C6)nc5-c5ccc(F)cc5)ncnc4o3)c2)CC1 [Example 205, 3-[3-(4-fluorophenyl)-4-(6-{3-[(4-methylpiperazin-1-yl)methyl]phenyl}furo[2,3-d]pyrimidin-4-yl)-1H-pyrazol-1-yl]-1λ6-thietane-1,1-dione] | – | – | –
2 | 2500 | > 20000 | 6.02 | 1110 | O=S1(=O)CC(n2cc(-c3ncnc4oc(C#CC5CCC5)cc34)c(-c3ccc(F)cc3)n2)C1 [Example 206, 3-{4-[6-(cyclobutylethynyl)furo[2,3-d]pyrimidin-4-yl]-3-(4-fluorophenyl)-1H-pyrazol-1-yl}-1λ6-thietane-1,1-dione] | – | – | –
3 | 140 | 4390 | 3.26 | 633 | Fc1ccc(-c2nn(C3CCCCC3(F)F)cc2-c2ncnc3oc(-c4ccccc4)cc23)cc1 (stereo not drawn) [Example 207, 4-[1-(2,2-difluorocyclohexyl)-3-(4-fluorophenyl)-1H-pyrazol-4-yl]-6-phenylfuro[2,3-d]pyrimidine] | – | – | –
4 | 155 | 1680 | 0.4 | 95.7 | CC(=O)N1CCC=C(c2cc3c(-c4cn(CC(C)(C)O)nc4-c4ccc(F)cc4)ncnc3o2)C1 [Example 208, 1-[5-{4-[3-(4-fluorophenyl)-1-(2-hydroxy-2-methylpropyl)-1H-pyrazol-4-yl]furo[2,3-d]pyrimidin-6-yl}-3,6-dihydropyridin-1 (2H)-yl]ethan-1-one] | – | – | –
5 | 296 | 1940 | 0.44 | 160 | CC(=O)N1CCC=C(c2cc3c(-c4cn(C5CS(=O)(=O)C5)nc4-c4ccc(F)cc4)ncnc3o2)C1 [Example 209, 3-{4-[6-(1-acetyl-1,2,5,6-tetrahydropyridin-3-yl)furo[2,3-d]pyrimidin-4-yl]-3-(4-fluorophenyl)-1H-pyrazol-1-yl}-1λ6-thietane-1,1-dione] | – | – | –
6 | 6.71 | 87.8 | 0.37 | 5.28 | C[C@@H]1C[C@H](n2cc(-c3ncnc4oc(-c5ccccc5)cc34)c(-c3ccc(F)cc3)n2)CN1S(C)(=O)=O [Example 212, 4-{3-(4-fluorophenyl)-1-[(3S,5R)-1-(methanesulfonyl)-5-methylpyrrolidin-3-yl]-1H-pyrazol-4-yl}-6-phenylfuro[2,3-d]pyrimidine] | – | – | –
7 | 30.8 | 2340 | 0.26 | 83.5 | CS(=O)(=O)CCCn1cc(-c2ncnc3[nH]c(-c4ccccc4)nc23)c(-c2ccc(F)cc2)n1 [Example 215, 6-{3-(4-fluorophenyl)-1-[3-(methanesulfonyl)propyl]-1H-pyrazol-4-yl}-8-phenyl-9H-purine] | – | – | –
8 | 31.1 | 2130 | 0.06 | 58.5 | O=S1(=O)CC(n2cc(-c3ncnc4oc(-c5c[nH]cn5)cc34)c(-c3ccc(F)cc3)n2)C1 [Example 216, 3-{3-(4-fluorophenyl)-4-[6-(1H-imidazol-4-yl)furo[2,3-d]pyrimidin-4-yl]-1H-pyrazol-1-yl}-16-thietane-1,1-dione] | – | – | –
9 | 158 | 1440 | 0.36 | 103 | O=S1(=O)CC(n2cc(-c3ncnc4oc(-c5ccns5)cc34)c(-c3ccc(F)cc3)n2)C1 [Example 218, 3-{3-(4-fluorophenyl)-4-[6-(1,2-thiazol-5-yl)furo[2,3-d]pyrimidin-4-yl]-1H-pyrazol-1-yl}-1λ6-thietane-1,1-dione] | – | – | –
10 | 221 | 4370 | 1.53 | 200 | Fc1ccc(-c2nn([C@H]3C[C@H](F)C3)cc2-c2ncnc3oc(-c4ccccc4)cc23)cc1 [Example 219, 4-{1-[(1r,3r)-3-fluorocyclobutyl]-3-(4-fluorophenyl)-1H-pyrazol-4-yl}-6-phenylfuro[2,3-d]pyrimidine] | – | – | –
11 | 37.2 | 1040 | 0.55 | 111 | CC1(C)CC(Cn2cc(-c3ncnc4oc(-c5ccccc5)cc34)c(-c3ccc(F)cc3)n2)O1 (stereo not drawn) [Example 220, 4-{1-[(4,4-dimethyloxetan-2-yl)methyl]-3-(4-fluorophenyl)-1H-pyrazol-4-yl}-6-phenylfuro[2,3-d]pyrimidine] | – | – | –
12 | 2200 | > 20000 | 21.6 | 893 | Cc1noc(-c2cc3c(-c4cn(C5CS(=O)(=O)C5)nc4-c4ccc(F)cc4)ncnc3o2)n1 [Example 223, 3-{3-(4-fluorophenyl)-4-[6-(3-methyl-1,2,4-oxadiazol-5-yl)furo[2,3-d]pyrimidin-4-yl]-1H-pyrazol-1-yl}-1λ6-thietane-1,1-dione] | – | – | –
13 | 667 | 4560 | 2.13 | 384 | CN(C)C(=O)c1ccccc1-c1cc2c(-c3cn(C4CS(=O)(=O)C4)nc3-c3ccc(F)cc3)ncnc2o1 [Example 228, 2-{4-[1-(1,1-dioxo-1λ6-thietan-3-yl)-3-(4-fluorophenyl)-1H-pyrazol-4-yl]furo[2,3-d]pyrimidin-6-yl}-N,N-dimethylbenzamide] | – | – | –
14 | 292 | 3760 | 0.67 | 169 | CNC(=O)c1ccccc1-c1cc2c(-c3cn(C4CS(=O)(=O)C4)nc3-c3ccc(F)cc3)ncnc2o1 [Example 229, 2-{4-[1-(1,1-dioxo-1λ6-thietan-3-yl)-3-(4-fluorophenyl)-1H-pyrazol-4-yl]furo[2,3-d]pyrimidin-6-yl}-N-methylbenzamide] | – | – | –
15 | 17.9 | 660 | 0.46 | 35.4 | Fc1ccc(-c2nn(CCOC(F)F)cc2-c2ncnc3oc(-c4ccccc4)cc23)cc1 [Example 231, 4-{1-[2-(difluoromethoxy)ethyl]-3-(4-fluorophenyl)-1H-pyrazol-4-yl}-6-phenylfuro[2,3-d]pyrimidine] | – | – | –
16 | 9.42 | 301 | 0.23 | 9.99 | N#CCCc1cccc(-c2cc3c(-c4cn(C5CS(=O)(=O)C5)nc4-c4ccc(F)cc4)ncnc3o2)c1 [Example 232, 3-(3-{4-[1-(1,1-dioxo-1λ6-thietan-3-yl)-3-(4-fluorophenyl)-1H-pyrazol-4-yl]furo[2,3-d]pyrimidin-6-yl}phenyl)propanenitrile] | – | – | –

Row | Structure (SMILES) | IC50 (BaF3_EGFR LR/CS cells; [2]) [nM] | IC50 (Ba/F3_EGFR WT cells; [3]) [nM] | IC50 [1] [nM] | IC50 (BaF3_EGFR d19/CS cells; [4]) [nM] | IC50 (BaF3_EGFR LR/CS cells; 72 h) [nM] | IC50 (Ba/F3_EGFR WT cells; 72 h) [nM] | IC50 (BaF3_EGFR d19/CS cells; 72 h) [nM]
17 | Cn1cncc1-c1cc2c(-c3cn(C4CS(=O)(=O)C4)nc3-c3ccc(F)cc3)ncnc2o1 [Example 217, 3-{3-(4-fluorophenyl)-4-[6-(1-methyl-1H-imidazol-5-yl)furo[2,3-d]pyrimidin-4-yl]-1H-pyrazol-1-yl}-16-thietane-1,1-dione] | – | – | 0.276 | – | 147 | 1240 | 98.9
18 | Cc1ncc(-c2cc3c(-c4cn(C5CS(=O)(=O)C5)nc4-c4ccc(F)cc4)ncnc3o2)s1 [Example 224, 3-{3-(4-fluorophenyl)-4-[6-(2-methyl-1,3-thiazol-5-yl)furo[2,3-d]pyrimidin-4-yl]-1H-pyrazol-1-yl}-16-thietane-1,1-dione] | – | – | 0.14 | – | 26.6 | 1450 | 37.7
